The nature of assay [1]: Compound was evaluated for the toxicity in human PBM cells. Format: functional, cell-based.
A short description of assay [2]: Compound was evaluated for the anti-HIV-1 activity in human peripheral blood mononuclear cells infected with HIV-1LA1. Type of assay: functional.
The subject of another assay is Vero. The experiment in a line: Compound was evaluated for the toxicity in rapidly dividing Vero cells (African Green monkeys kidney cells). Format: functional, cell-based. The settings on record: Chlorocebus sabaeus.

pEC50, pIC50: −log10 of the molar value.

What is called pIC50 is the negative decadic logarithm of the IC50, by convention in mol/L. As usually defined, the pEC50 is the negative decadic logarithm of the EC50, by convention in mol/L.

Consider `O=C(O)CCC(=O)OC1CCC23c4c5c6c7c8c9c%10c%11c%12c%13c%14c%15c%16c%17c%18c(c9c6c6c%18c9c%17c%17c%15c%15c%18c%14c%14c%12c%12c%11c8c(c8c%11c2c2c4c4c(c56)c9c5c4c4c2c2c%11c(c8%12)c%14c%18c2c4c%15c%175)C73C1)C%10C%13%16` (centres undefined), for which the pIC50 (in assay [1]; in the assay with Vero) was less than 4.00 throughout. In assay [2] (Homo sapiens), this compound gave a pEC50 of 5.20.

Turning to `O=C(O)CO/N=C1\CCC23c4c5c6c7c8c9c%10c%11c%12c%13c%14c%15c%16c%17c%18c(c9c6c6c%18c9c%17c%17c%15c%15c%18c%14c%14c%12c%12c%11c8c(c8c%11c2c2c4c4c(c56)c9c5c4c4c2c2c%11c(c8%12)c%14c%18c2c4c%15c%175)C73C1)C%10C%13%16` (centres undefined), the pIC50 (in assay [1]; with Vero) was less than 4.00 each time. Also, in assay [2] (Homo sapiens), the negative logarithm of the EC50 (pEC50) is 5.54.

As for `O=C(CCCc1ccc(C2(c3ccccc3)C34c5c6c7c8c9c%10c(c%11c%12c3c3c5c5c%13c6c6c7c7c9c9c%14c%10c%10c%11c%11c%12c%12c3c3c5c5c%13c%13c6c6c7c9c7c9c%14c%10c%10c%11c%11c%12c3c3c5c5c%13c6c7c6c9c%10c%11c3c56)C824)cc1)NC(CO)(CO)CO` (centres undefined), the pIC50 (in assay [1]; in the assay on Vero) was less than 4.00 throughout. In assay [2] (Homo sapiens), this compound had a pEC50 of 5.60.

For the compound `c1ccc(C2(c3ccc4c(c3)OCCOCCOCCOCCOCCO4)C34C5=C6C7=C8Cc9c%10c8c8c%11c%12c%13c%14c%15c(c6c6c%16c%17c(c%18c%19c3c(c3c9c9c%20c%10c%11c%10c%11c%12c%12c%14c(c%15%16)c%14c%17c%15c%18c%16c%19c3c9c3c%16c9c%15c%14c%12c%11c9c3c%20%10)C5)C642)C7C8%13)cc1` (centres undefined), the pIC50 (in assay [1]; in the assay on Vero) was less than 4.00 in each case. The pEC50 in assay [2] (Homo sapiens) was 3.86.

In the case of `O=C(O)CO/N=C1\C=CC23c4c5c6c7c8c9c%10c%11c%12c%13c%14c%15c%16c%17c%18c(c9c6c6c%18c9c%17c%17c%15c%15c%18c%14c%14c%12c%12c%11c8c(c8c%11c2c2c4c4c(c56)c9c5c4c4c2c2c%11c(c8%12)c%14c%18c2c4c%15c%175)C73C1)C%10C%13%16` (centres undefined), the pIC50 was less than 4.00 in assay [1] and 4.47 in the assay with Vero. In assay [2] (Homo sapiens), this compound had a pEC50 of 5.14.

As for `COC1C/C(=N\OCC(=O)O)CC23c4c5c6c7c8c9c(c%10c%11c2c2c4c4c%12c5c5c6c6c8c8c%13c9c9c%10c%10c%11c%11c2c2c4c4c%12c%12c5c5c6c8c6c8c%13c9c9c%10c%10c%11c2c2c4c4c%12c5c6c5c8c9c%10c2c45)C713` (centres undefined), the negative logarithm of the IC50 (pIC50) (in assay [1]; in the assay with Vero) was less than 4.00 throughout. The negative-log EC50 (pEC50) in assay [2] (Homo sapiens) was 6.05.

Regarding `CC12CCC/C(=N\OCC(=O)O)C1C13c4c5c6c7c8c9c%10c%11c%12c%13c%14c%15c(c6c6c4c4c%16c%17c%18c(c%19c%20c1c5c8c1c%20c5c%19c8c%18c%18c%19c%17c%17c4c6c%15c4c%14c6c%12c%12c%14c%11c(c91)c5c%14c8c%18c%12c6c%19c4%17)C%1623)C7C%10%13` (centres undefined), the pIC50 (in assay [1]; in the assay on Vero) was less than 4.00 each time. In assay [2] (Homo sapiens), this compound gave a pEC50 of 4.66.

Turning to `CC1C=CC(COC(=O)CCC(=O)O)C23c4c5c6c7c8c9c%10c%11c%12c%13c%14c%15c%16c%17c%18c(c9c6c6c%18c9c%17c%17c%15c%15c%18c%14c%14c%12c%12c%11c8c(c8c%11c2c2c4c4c(c56)c9c5c4c4c2c2c%11c(c8%12)c%14c%18c2c4c%15c%175)C713)C%10C%13%16` (centres undefined), the pIC50 (in assay [1]; in the assay with Vero) was less than 4.00 throughout. The compound also gave a pEC50 in assay [2] (Homo sapiens) of 5.66.

As for `CN1CC23C4=C5Cc6c7c5c5c8c9c%10c%11c%12c(c2c2c%13c%14c%15c%16c%17c%18c%19c%20c(c6c6c%20c%20c%18c%18c%21c%17c%14c%14c(c%12%13)c%11c%11c9c9c%12c8c7c6c%12c%20c%18c9c%11c%14%21)=C6CC3(C1)C(C2%15)C61CN(C)CC%16%191)C4C5%10` (centres undefined), the pIC50 (in assay [1]; with Vero) was less than 4.00 throughout. The negative logarithm of the EC50 (pEC50) in assay [2] (Homo sapiens) is 4.14.

As to `OC1CCC23CC4=c5c6c7c8c9c%10c%11c%12c%13c%14c%15c%16c%17c(c-8c8c%18c%17c%17c(c%19c%20c%21c%22c%23c%24c%25c%26c%27c%28c(c5c(c6%10)c5c%28c%25c(c%13c%24c%14c%22c%16c%17%21)c%115)CC%27=C(C%20C%23%26)C%192C1)C%18C3C41CC(O)CCC871)C9%15%12` (centres undefined), the negative-log IC50 (pIC50) (in assay [1]; with Vero) was less than 4.00 in each case. In assay [2] (Homo sapiens), this compound had a pEC50 of 4.75.

On to `O=C(O)CCC(=O)NCCc1ccc(C2(c3ccc(CCNC(=O)CCC(=O)O)cc3)C34c5c6c7c8c9c5c5c%10c%11c%12c(c%13c%14c%15c%16c%17c%18c%19c%20c%21c%22c(c-%13c3c6c%22c3c7c6c7c%13c%22c%23c%24c(c9c5c5c%11c9c(c%15%12)c%16c%11c%18c(c%13c%19c7c%213)c%23c%11c9c%245)C86%22)C%14C%20%17)C%1024)cc1` (centres undefined), for which the negative-log IC50 (pIC50) (in assay [1]; in the assay with Vero) was less than 4.00 in each case. Further, the negative-log EC50 (pEC50) in assay [2] (Homo sapiens) was 5.14.

The compound `COC1CC(=O)CC23C4=c5c6c7c8c9c%10c%11c%12c%13c%14c%15c%16c%17c%18c%19c%20c(c%21c%22c%23c(c5c5c6c6c8c%11c8c%11c%12c%12c%14c(c%15%19)c%14c%20c%22c%15c%19c%23c5c(c68)c%19c%11c%12c%14%15)C%2112)C%18C3C1(C4)C(OC)CC(=O)CC%171C(=C9C7)C%16C%10%13` (single isomer, unassigned; isomer A) showed a negative logarithm of the EC50 (pEC50) in assay [2] of less than 4.00.

Turning to `COC1CC(=O)CC23C4=c5c6c7c8c9c%10c%11c%12c%13c%14c%15c%16c%17c%18c%19c%20c(c%21c%22c%23c(c5c5c6c6c8c%11c8c%11c%12c%12c%14c(c%15%19)c%14c%20c%22c%15c%19c%23c5c(c68)c%19c%11c%12c%14%15)C%2112)C%18C3C1(C4)C(OC)CC(=O)CC%171C(=C9C7)C%16C%10%13` (stereo in doubt), the negative-log IC50 (pIC50) (in assay [1]; in the assay on Vero) was less than 4.00 each time. The compound also had a negative-log EC50 (pEC50) in assay [2] of 5.11.

Turning to `Cc1cn([C@H]2C[C@H](N=[N+]=[N-])[C@@H](CO)O2)c(=O)[nH]c1=O` [ZIDOVUDINE], in assay [1], the pIC50 is less than 4.00. In assay [2] (Homo sapiens), the pEC50 was 8.40.

Values taken from ChEMBL document CHEMBL1153252, “Anti-human immunodeficiency virus activity and cytotoxicity of derivatized buckminsterfullerenes” (Bioorg Med Chem Lett, 1996).
